From US20250320206A1, “STAT6 DEGRADERS” (Gilead Sciences, Inc., priority 2024, published 2025)

What was measured:
STAT6 = target: T1, STAT6 (Homo sapiens, UniProt P42226); experiment: Stat6 Degrader Assay (HiBiT based, HeLa LgBiT clone 4.14); assay type: cell-based; details: HeLa LgBiT clone 4.14 HiBiT-STAT6, 4-24 h incubation; for DC50: values given for compounds with >80% Emax, geometric mean, read-out: STAT6 degradation DC50
T1 construct: These cells express endogenous STAT6; host or cells: HeLa LgBiT clone 4.14
T1 sequence (P42226 1-847): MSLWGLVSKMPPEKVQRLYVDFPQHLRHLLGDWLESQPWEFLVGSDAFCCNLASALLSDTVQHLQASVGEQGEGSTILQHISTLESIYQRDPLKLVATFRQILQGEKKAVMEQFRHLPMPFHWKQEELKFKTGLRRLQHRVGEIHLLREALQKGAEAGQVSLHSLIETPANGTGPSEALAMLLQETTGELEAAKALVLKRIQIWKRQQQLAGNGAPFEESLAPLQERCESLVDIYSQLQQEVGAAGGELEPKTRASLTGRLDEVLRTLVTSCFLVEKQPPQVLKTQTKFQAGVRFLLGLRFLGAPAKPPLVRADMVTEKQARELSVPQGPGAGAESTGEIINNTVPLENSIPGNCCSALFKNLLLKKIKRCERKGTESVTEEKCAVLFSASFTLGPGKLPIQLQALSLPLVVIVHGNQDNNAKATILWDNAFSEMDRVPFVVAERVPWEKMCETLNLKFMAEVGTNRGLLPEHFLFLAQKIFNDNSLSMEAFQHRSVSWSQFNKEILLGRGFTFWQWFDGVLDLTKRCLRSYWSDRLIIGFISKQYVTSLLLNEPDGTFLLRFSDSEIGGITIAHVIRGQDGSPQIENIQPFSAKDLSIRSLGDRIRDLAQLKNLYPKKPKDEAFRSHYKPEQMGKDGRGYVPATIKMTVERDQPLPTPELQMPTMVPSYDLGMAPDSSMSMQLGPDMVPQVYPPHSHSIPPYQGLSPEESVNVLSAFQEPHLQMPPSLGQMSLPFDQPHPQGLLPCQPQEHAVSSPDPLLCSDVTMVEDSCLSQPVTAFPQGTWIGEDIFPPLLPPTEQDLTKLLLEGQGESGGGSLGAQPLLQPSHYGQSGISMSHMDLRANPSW
Summary of the method: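 HeLa LgBiT clone 4.14 cells with CRISPR HiBiT-tagged endogenous STAT6, 5000 cells/well, compound dosed then incubated 4-24 h at 37° C, 5% CO2. Nano-Glo substrate added, 0.5 h, luminescence read as non-degraded STAT6. Terfenadine 50 μM (cell kill) defines 100% degradation.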

[1] = test system: Eotaxin-3 release in human whole blood stimulated with IL-4; experiment: Human Whole Blood Eotaxin-3 Assay (IL-4 stimulated eotaxin-3 release); assay type: cell-based; details: IL-4 stimulation, 48 h, values given for compounds with >80% Emax, geometric mean
Summary of the method: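 Lithium-heparin human whole blood preincubated 2 h at 37° C with 4-fold serially diluted compounds (0.5% DMSO), then stimulated with recombinant human IL-4 ([…]) for 48 h. Eotaxin-3 (CCL26) in supernatant quantified by MSD immunoassay.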

Row | DC50 (STAT6) | EC50 [1] | Emax (STAT6; read-out: STAT6 degradation Emax) | SMILES
1 | 2.2 nM | 3.2 nM |  | CNc1cc(=O)n(-c2ccnc3c2cc([C@H](C)N2CC=C(c4c(C)cc(C(=O)N5CCC(CN6CCN(c7ccc8c(c7)n(C)c(=O)n8[C@@H]7CCC(=O)NC7=O)CC6)CC5)cc4F)CC2)n3C)cc1F (single isomer, unassigned) [Example 3u297]
2 | 9.8 nM | 45.9 nM |  | CNc1cc(=O)n(-c2ccnc3c2cc(CN2CC=C(c4c(F)cc(C(=O)N5CCC(CN6CCN(Cc7ccc8c(c7)C(C)(C)C(=O)N8[C@H]7CCC(=O)NC7=O)C[C@@H]6C)CC5)cc4F)CC2)n3C)cc1F (single isomer, unassigned) [Example 3u78]
3 | 0.8 nM | 0.6 nM |  | CNc1ccn(-c2ccnc3c2cc([C@H](C)N2CC=C(c4c(C)cc(C(=O)N5CCC(CN6CCN(Cc7ccc8c(c7)C7(CC7)C(=O)N8C7CCC(=O)NC7=O)C[C@@H]6C)CC5)cc4F)CC2)n3C)c(=O)n1 (stereo partly drawn) [Example 3u125, 3-(5′-(((S)-4-((1-(3-fluoro-5-methyl-4-(1-((S)-1-(1-methyl-4-(4-(methylamino)-2-oxopyrimidin-1 (2H)-yl)-1H-pyrrolo[2,3-b]pyridin-2-yl)ethyl)-1,2,3,6-tetrahydropyridin-4-yl)benzoyl)piperidin-4-yl)methyl)-3-methylpiperazin-1-yl)methyl)-2′-oxospiro[cyclopropane-1,3′-indolin]-1′-yl)piperidine-2,6-dione]
4 | 0.5 nM | 0.4 nM |  | C[C@H]1CN(Cc2ccc3c(c2)n(C)c(=O)n3C2CCC(=O)NC2=O)CCN1CC1CCN(C(=O)c2cc(F)c(C3CCN(Cc4cc5c(-n6ccc7c(c6=O)CCN7)ccnc5n4C)CC3)c(F)c2)CC1 (stereo partly drawn) [Example 3u311, 3-(5-(((S)-4-((1-(3,5-difluoro-4-(1-((1-methyl-4-(4-oxo-1,2,3,4-tetrahydro-5H-pyrrolo[3,2-c]pyridin-5-yl)-1H-pyrrolo[2,3-b]pyridin-2-yl)methyl)piperidin-4-yl)benzoyl)piperidin-4-yl)methyl)-3-methylpiperazin-1-yl)methyl)-3-methyl-2-oxo-2,3-dihydro-1H-benzo[d]imidazol-1-yl)piperidine-2,6-dione]
5 | 8.8 nM | 17.3 nM |  | CNc1ccn(-c2ccnc3c2cc(CN2CC=C(c4c(C)cc(C(=O)N5CCC(CN6CCN(Cc7ccc8c(c7)C(C)(C)C(=O)N8[C@@H]7CCC(=O)NC7=O)C[C@@H]6C)CC5)cc4F)CC2)n3C)c(=O)c1 (single isomer, unassigned) [Example 3u180]
6 | 0.4 nM | 0.3 nM |  | CNc1ccn(-c2ccnc3c2cc([C@H](C)N2CC=C(c4c(C)cc(C(=O)N5CCC(CN6CCN(Cc7ccc8c(c7)n(C7CC7)c(=O)n8C7CCC(=O)NC7=O)C[C@@H]6C)CC5)cc4F)CC2)n3C)c(=O)c1 (stereo partly drawn) [Example 3u111, 3-(3-cyclopropyl-5-(((S)-4-((1-(3-fluoro-5-methyl-4-(1-((S)-1-(1-methyl-4-(4-(methylamino)-2-oxopyridin-1 (2H)-yl)-1H-pyrrolo[2,3-b]pyridin-2-yl)ethyl)-1,2,3,6-tetrahydropyridin-4-yl)benzoyl)piperidin-4-yl)methyl)-3-methylpiperazin-1-yl)methyl)-2-oxo-2,3-dihydro-1H-benzo[d]imidazol-1-yl)piperidine-2,6-dione]
7 | 2.9 nM | 3.4 nM |  | CNc1cc(=O)n(-c2ccnc3c2cc(CN2CCC(c4c(F)cc(C(=O)N5CCC(CN6CCN(Cc7ccc8c(c7)n(C)c(=O)n8C7CCC(=O)NC7=O)CC6)CC5)cc4F)CC2)n3C)cc1F (stereo not shown) [Example 3u26, 3-(5-((4-((1-(3,5-difluoro-4-(1-((4-(5-fluoro-4-(methylamino)-2-oxopyridin-1 (2H)-yl)-1-methyl-1H-pyrrolo[2,3-b]pyridin-2-yl)methyl)piperidin-4-yl)benzoyl)piperidin-4-yl)methyl)piperazin-1-yl)methyl)-3-methyl-2-oxo-2,3-dihydro-1H-benzo[d]imidazol-1-yl)piperidine-2,6-dione]
8 | 0.5 nM | 0.2 nM |  | CNc1ccn(-c2ccnc3c2cc([C@H](C)N2CC=C(c4c(C)cc(C(=O)N5CCC(CN6CCN(Cc7cc8c(cc7F)n([C@H]7CCC(=O)NC7=O)c(=O)n8C)CC6)CC5)cc4F)CC2)n3C)c(=O)c1 (single isomer, unassigned) [Example 3u11]
9 | 0.9 nM | 0.5 nM |  | CNc1ccn(-c2ccnc3c2cc([C@H](C)N2CC=C(c4c(C)cc(C(=O)N5CCC(CN6CCN(c7ccc8c(c7)n(C)c(=O)n8C7CCC(=O)NC7=O)CC6)CC5)cc4F)CC2)n3C)c(=O)c1 (stereo partly drawn) [Example 3u299, 3-(5-(4-((1-(3-fluoro-5-methyl-4-(1-((S)-1-(1-methyl-4-(4-(methylamino)-2-oxopyridin-1 (2H)-yl)-1H-pyrrolo[2,3-b]pyridin-2-yl)ethyl)-1,2,3,6-tetrahydropyridin-4-yl)benzoyl)piperidin-4-yl)methyl)piperazin-1-yl)-3-methyl-2-oxo-2,3-dihydro-1H-benzo[d]imidazol-1-yl)piperidine-2,6-dione]
10 | 13 nM | 24.1 nM |  | CNc1cc(=O)n(-c2ccnc3c2cc([C@H](C)N2CC=C(c4c(F)cc(C(=O)N5CCC(CN6CCN(c7ccc8c(c7)C7(CC7)C(=O)N8C7CCC(=O)NC7=O)CC6)CC5)cc4F)CC2)n3C)cc1F (stereo partly drawn) [Example 3u300, 3-(5′-(4-((1-(3,5-difluoro-4-(1-((S)-1-(4-(5-fluoro-4-(methylamino)-2-oxopyridin-1 (2H)-yl)-1-methyl-1H-pyrrolo[2,3-b]pyridin-2-yl)ethyl)-1,2,3,6-tetrahydropyridin-4-yl)benzoyl)-piperidin-4-yl)methyl)piperazin-1-yl)-2′-oxospiro[cyclopropane-1,3′-indolin]-1′-yl)piperidine-2,6-dione]
11 | 0.9 nM | 1.3 nM |  | CNc1ccn(-c2ccnc3c2cc(CN2CCC(c4c(F)cc(C(=O)N5CCC(CN6CCN(Cc7ccc8c(c7)C7(CC7)C(=O)N8[C@H]7CCC(=O)NC7=O)C[C@@H]6C)CC5)cc4F)CC2)n3C)c(=O)c1 (single isomer, unassigned) [Example 3u223]
12 | 0.3 nM | 0.5 nM |  | C[C@H]1CN(Cc2ccc3c(c2)n(C2CC2)c(=O)n3C2CCC(=O)NC2=O)CCN1CC1CCN(C(=O)c2cc(F)c(C3CCN([C@@H](C)c4cc5c(-n6ccc7c(c6=O)CCN7)ccnc5n4C)CC3)c(F)c2)CC1 (stereo partly drawn) [Example 3u196, 3-(3-cyclopropyl-5-(((S)-4-((1-(3,5-difluoro-4-(1-((S)-1-(1-methyl-4-(4-oxo-1,2,3,4-tetrahydro-5H-pyrrolo[3,2-c]pyridin-5-yl)-1H-pyrrolo[2,3-b]pyridin-2-yl)ethyl)piperidin-4-yl)benzoyl)-piperidin-4-yl)methyl)-3-methylpiperazin-1-yl)methyl)-2-oxo-2,3-dihydro-1H-benzo[d]imidazol-1-yl)-piperidine-2,6-dione]
13 | 2.7 nM | 2.9 nM |  | CNc1ccn(-c2ccnc3c2cc([C@H](C)N2CC=C(c4c(C)cc(C(=O)N5CCC(CN6CCN(c7ccc8c(c7)n(C7CC7)c(=O)n8C7CCC(=O)NC7=O)CC6)CC5)cc4F)CC2)n3C)c(=O)c1 (stereo partly drawn) [Example 3u287, 3-(3-cyclopropyl-5-(4-((1-(3-fluoro-5-methyl-4-(1-((S)-1-(1-methyl-4-(4-(methyl-amino)-2-oxopyridin-1 (2H)-yl)-1H-pyrrolo[2,3-b]pyridin-2-yl)ethyl)-1,2,3,6-tetrahydropyridin-4-yl)benzoyl)piperidin-4-yl)methyl)piperazin-1-yl)-2-oxo-2,3-dihydro-1H-benzo[d]imidazol-1-yl)-piperidine-2,6-dione]
14 |  | 90.5 nM | 20 to 30% | CNc1cc(=O)n(-c2ccnc3c2cc(CN2CCC(c4c(F)cc(C(=O)N5CCC(CN6CCN(c7ccc8c(c7)C7(CC7)C(=O)N8C7CCC(=O)NC7=O)CC6)CC5)cc4F)CC2)n3C)cc1F (stereo not shown) [Example 3u301, 3-(5′-(4-((1-(3,5-difluoro-4-(1-((4-(5-fluoro-4-(methylamino)-2-oxopyridin-1 (2H)-yl)-1-methyl-1H-pyrrolo[2,3-b]pyridin-2-yl)methyl)piperidin-4-yl)benzoyl)piperidin-4-yl)methyl)-piperazin-1-yl)-2′-oxospiro[cyclopropane-1,3′-indolin]-1′-yl)piperidine-2,6-dione]
